Reference: patent US11945813B2, “5-substituted 4-amino-1H-benzo[c][1,2,6]thiadiazine 2,2-dioxides and formulations and uses thereof” (Firmenich Incorporated, priority 2018, dated 2024)

Target: T1, T1R2/T1R3 taste receptor (Homo sapiens, UniProt Q8TE23)
T1 sequence (Q8TE23 20-839): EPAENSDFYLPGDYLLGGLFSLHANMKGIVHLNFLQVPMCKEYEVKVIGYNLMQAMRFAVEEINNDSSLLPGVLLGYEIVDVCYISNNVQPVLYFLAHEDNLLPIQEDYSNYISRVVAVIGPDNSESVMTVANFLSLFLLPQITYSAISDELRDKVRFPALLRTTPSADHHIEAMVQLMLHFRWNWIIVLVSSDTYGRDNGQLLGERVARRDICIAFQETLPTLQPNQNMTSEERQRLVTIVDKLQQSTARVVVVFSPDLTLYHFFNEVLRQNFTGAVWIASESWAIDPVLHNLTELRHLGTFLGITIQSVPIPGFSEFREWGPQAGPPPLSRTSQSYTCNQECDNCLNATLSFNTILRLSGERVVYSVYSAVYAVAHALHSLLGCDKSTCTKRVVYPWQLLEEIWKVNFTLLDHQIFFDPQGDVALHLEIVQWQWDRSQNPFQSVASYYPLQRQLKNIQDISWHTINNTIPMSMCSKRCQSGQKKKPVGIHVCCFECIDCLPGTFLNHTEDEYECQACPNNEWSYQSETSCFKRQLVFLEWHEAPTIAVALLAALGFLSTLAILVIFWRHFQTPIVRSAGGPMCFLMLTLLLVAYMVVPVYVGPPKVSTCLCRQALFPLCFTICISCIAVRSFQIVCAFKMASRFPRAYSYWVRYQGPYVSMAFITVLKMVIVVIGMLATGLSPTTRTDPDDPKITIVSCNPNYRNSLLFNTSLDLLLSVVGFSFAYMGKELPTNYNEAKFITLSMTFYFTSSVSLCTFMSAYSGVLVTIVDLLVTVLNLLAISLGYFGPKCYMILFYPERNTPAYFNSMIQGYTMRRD
T1 sequence (Q7RTX0 21-852 partner): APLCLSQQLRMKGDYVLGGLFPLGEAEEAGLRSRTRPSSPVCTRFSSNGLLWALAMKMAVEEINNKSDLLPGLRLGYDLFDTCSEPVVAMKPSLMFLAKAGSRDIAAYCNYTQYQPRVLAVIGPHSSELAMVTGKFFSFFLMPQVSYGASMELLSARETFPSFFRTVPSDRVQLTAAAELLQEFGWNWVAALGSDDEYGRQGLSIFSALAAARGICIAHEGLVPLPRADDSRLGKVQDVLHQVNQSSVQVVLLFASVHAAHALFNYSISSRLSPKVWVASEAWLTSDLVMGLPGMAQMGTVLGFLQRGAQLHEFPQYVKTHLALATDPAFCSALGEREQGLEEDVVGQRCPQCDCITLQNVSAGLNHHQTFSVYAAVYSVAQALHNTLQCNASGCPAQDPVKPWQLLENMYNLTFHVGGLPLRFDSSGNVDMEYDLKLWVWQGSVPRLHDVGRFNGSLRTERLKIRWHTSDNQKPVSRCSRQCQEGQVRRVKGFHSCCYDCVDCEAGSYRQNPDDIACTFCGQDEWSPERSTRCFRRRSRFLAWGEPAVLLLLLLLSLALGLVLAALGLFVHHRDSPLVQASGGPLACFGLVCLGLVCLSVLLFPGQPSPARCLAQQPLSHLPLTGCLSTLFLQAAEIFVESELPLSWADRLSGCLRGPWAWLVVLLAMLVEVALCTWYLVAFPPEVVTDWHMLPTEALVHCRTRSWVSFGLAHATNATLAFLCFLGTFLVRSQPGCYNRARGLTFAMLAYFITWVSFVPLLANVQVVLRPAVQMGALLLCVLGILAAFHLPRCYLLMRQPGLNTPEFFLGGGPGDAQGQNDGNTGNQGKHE
Test: Receptor-based assay: sweetener EC50 alone and with test compound (enhancement ratio)
Assay type: cell-based
Details: for Fructose Enhancement EC50 Ratio: sweetener fructose; for Sucralose Enhancement EC50 Ratio: sweetener sucralose; for Sucrose Enhancement EC50 Ratio: sweetener sucrose
Method in brief: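 Sucrose, sucralose or fructose EC50 measured on human T1R2/T1R3, alone and with 3, 10 or 50 μM test compound. Enhancement is the EC50 ratio without/with compound, binned A >20, B 10-20, C >1 to <10.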

SMILES | Fructose Enhancement EC50 Ratio (10 μM test compound) | Fructose Enhancement EC50 Ratio (50 μM test compound) | Sucralose Enhancement EC50 Ratio (10 μM test compound) | Sucrose Enhancement EC50 Ratio (3 μM test compound) | Sucrose Enhancement EC50 Ratio (10 μM test compound) | Sucrose Enhancement EC50 Ratio (50 μM test compound) | Sucralose Enhancement EC50 Ratio (50 μM test compound)
NC1=NS(=O)(=O)Nc2cccc(OC[C@H]3CCCN(c4cccc(C(=O)N5CCOCC5)n4)C3)c21 [Compound 414] | C (A “C” value indicates an enhancement ratio greater than 1 and less than 10) | C (A “C” value indicates an enhancement ratio greater than 1 and less than 10) | A (An “A” value indicates an enhancement ratio of greater than 20) | C (A “C” value indicates an enhancement ratio greater than 1 and less than 10) | C (A “C” value indicates an enhancement ratio greater than 1 and less than 10) | B (A “B” value indicates an enhancement ratio from 10 to 20) | 
CN(C)CCNC(=O)c1ccc(N2CCC[C@H](COc3cccc4c3C(N)=NS(=O)(=O)N4)C2)nc1 [Compound 505] |  | C (A “C” value indicates an enhancement ratio greater than 1 and less than 10) | C (A “C” value indicates an enhancement ratio greater than 1 and less than 10) | C (A “C” value indicates an enhancement ratio greater than 1 and less than 10) | C (A “C” value indicates an enhancement ratio greater than 1 and less than 10) | C (A “C” value indicates an enhancement ratio greater than 1 and less than 10) | A (An “A” value indicates an enhancement ratio of greater than 20)
NC1=NS(=O)(=O)Nc2cccc(OC[C@H]3CCCN(c4cc(C(=O)N5CCCC5)ccn4)C3)c21 [Compound 612] | C (A “C” value indicates an enhancement ratio greater than 1 and less than 10) | C (A “C” value indicates an enhancement ratio greater than 1 and less than 10) | A (An “A” value indicates an enhancement ratio of greater than 20) | C (A “C” value indicates an enhancement ratio greater than 1 and less than 10) | C (A “C” value indicates an enhancement ratio greater than 1 and less than 10) | C (A “C” value indicates an enhancement ratio greater than 1 and less than 10) | A (An “A” value indicates an enhancement ratio of greater than 20)
NC1=NS(=O)(=O)Nc2cccc(OC[C@H]3CCCN(c4cc(C(=O)NCC5CC5)ccn4)C3)c21 [Compound 617] | C (A “C” value indicates an enhancement ratio greater than 1 and less than 10) | C (A “C” value indicates an enhancement ratio greater than 1 and less than 10) | A (An “A” value indicates an enhancement ratio of greater than 20) | C (A “C” value indicates an enhancement ratio greater than 1 and less than 10) | C (A “C” value indicates an enhancement ratio greater than 1 and less than 10) | C (A “C” value indicates an enhancement ratio greater than 1 and less than 10) | A (An “A” value indicates an enhancement ratio of greater than 20)
CC(C)CNC(=O)c1cccc(N2CCC[C@H](COc3cccc4c3C(N)=NS(=O)(=O)N4)C2)n1 [Compound 416] |  | C (A “C” value indicates an enhancement ratio greater than 1 and less than 10) | A (An “A” value indicates an enhancement ratio of greater than 20) | C (A “C” value indicates an enhancement ratio greater than 1 and less than 10) | C (A “C” value indicates an enhancement ratio greater than 1 and less than 10) | B (A “B” value indicates an enhancement ratio from 10 to 20) | A (An “A” value indicates an enhancement ratio of greater than 20)
CC(C)(COc1cccc2c1C(N)=NS(=O)(=O)N2)Nc1ccnc(Cl)n1 [Compound 201, 4-amino-5-(2-((2-chloropyrimidin-4-yl)amino)-2-methylpropoxy)-1H-benzo[c][1,2,6]thiadiazine 2,2-dioxide] | C (A “C” value indicates an enhancement ratio greater than 1 and less than 10) |  |  | C (A “C” value indicates an enhancement ratio greater than 1 and less than 10) | C (A “C” value indicates an enhancement ratio greater than 1 and less than 10) | C (A “C” value indicates an enhancement ratio greater than 1 and less than 10) | A (An “A” value indicates an enhancement ratio of greater than 20)
CN1CCN(C(=O)c2cccc(N3CCC[C@H](COc4cccc5c4C(N)=NS(=O)(=O)N5)C3)n2)CC1 [Compound 415] | C (A “C” value indicates an enhancement ratio greater than 1 and less than 10) | C (A “C” value indicates an enhancement ratio greater than 1 and less than 10) |  | C (A “C” value indicates an enhancement ratio greater than 1 and less than 10) | C (A “C” value indicates an enhancement ratio greater than 1 and less than 10) | C (A “C” value indicates an enhancement ratio greater than 1 and less than 10) | A (An “A” value indicates an enhancement ratio of greater than 20)
NC1=NS(=O)(=O)Nc2cccc(OC[C@H]3CCCN(c4cccc(C(=O)N5CCCC5)n4)C3)c21 [Compound 412] | C (A “C” value indicates an enhancement ratio greater than 1 and less than 10) | C (A “C” value indicates an enhancement ratio greater than 1 and less than 10) | A (An “A” value indicates an enhancement ratio of greater than 20) | C (A “C” value indicates an enhancement ratio greater than 1 and less than 10) | C (A “C” value indicates an enhancement ratio greater than 1 and less than 10) | B (A “B” value indicates an enhancement ratio from 10 to 20) | A (An “A” value indicates an enhancement ratio of greater than 20)
CCCNC(=O)c1ccnc(N2CCC[C@H](COc3cccc4c3C(N)=NS(=O)(=O)N4)C2)c1 [Compound 602] | C (A “C” value indicates an enhancement ratio greater than 1 and less than 10) | C (A “C” value indicates an enhancement ratio greater than 1 and less than 10) | A (An “A” value indicates an enhancement ratio of greater than 20) | C (A “C” value indicates an enhancement ratio greater than 1 and less than 10) | B (A “B” value indicates an enhancement ratio from 10 to 20) |  | A (An “A” value indicates an enhancement ratio of greater than 20)
CC(C)(COc1cccc2c1C(N)=NS(=O)(=O)N2)Nc1ccccn1 [Compound 101] | C (A “C” value indicates an enhancement ratio greater than 1 and less than 10) |  | A (An “A” value indicates an enhancement ratio of greater than 20) | C (A “C” value indicates an enhancement ratio greater than 1 and less than 10) | C (A “C” value indicates an enhancement ratio greater than 1 and less than 10) | C (A “C” value indicates an enhancement ratio greater than 1 and less than 10) | A (An “A” value indicates an enhancement ratio of greater than 20)
